Results on 16 compounds are retold here after patent publication US8349835B2, “Aromatic ring fused triazine derivatives and uses thereof” (Shenyang Pharmaceutical University, priority 2008, dated 2013).

Usually inhibition stands for the percentage by which the read-out fell short of the control. Lower therefore signals little suppression.

The structures appear in SMILES notation. A value given as a limit tells only on which side of the number the result lay.

Test [1] deals with Microvascular Endothelial Cells (MVEC). The test can be described thus: MTT growth inhibition of MVEC. The class given is cell-based. Particulars: Endothelial cell, 96 h, 4 days culture with drug, read-out: IG50 on inhibiting growth of MVEC. On the procedure: In Vitro Anti-Tumor Activity Test
Put cell suspension into centrifugal tubes with a pipette under sterile conditions, then the cell suspension was centrifuged for 3 minutes at 1300 rpm. Discarded the supernatant lightly and added fresh culture medium. Mixed the cells by pipetting, then transferred the cells into culture flasks, and put them into the CO2 incubator. Changed the culture medium once after 24 hours.
Human prostate cancer cells (DU145, PC-3) were cultured in a medium containing RPMI1640 basic medium supplemented with 10% heat-inactivated FBS, 100 IU/mL penicillin, 100 μg/mL streptomycin and 1 mmol/L L-glutamine. Human breast carcinoma cells (T47D, MDA-MB231) were cultured in a medium containing RPM11640 basic medium supplemented with 10% heat-inactivated FBS, 5 μg/mL insulin, 100 IU/mL penicillin, 100 μg/mL streptomycin and 1 mmol/L L-glutamine. Human breast carcinoma cells (MCF-7) were cultured in a medium containing DMEM basic medium supplemented with 10% heat-inactivated FBS, 5 μg/mL insulin, 100 IU/mL penicillin, 100 μg/mL streptomycin and […]. Murine Lewis lung cancer cells (LL/2), murine melanoma cells (B16FD) and Microvascular Endothelial Cells (MVEC) were cultured in a medium containing DMEM basic medium supplemented with 10% heat-inactivated FBS, 4.5 g/L glucose, 1.5 g/L NaHCO3, 100 IU/mL penicillin, 100 μg/mL streptomycin and 4 mmol/L L-glutamine. All these cell lines were incubated at 37° C. biochemical incubator with 5% CO2 saturated humidity.
After resuscitation, the cells were passed for 2-3 generations till they became stable, then they were used for the experiments. Each passage was based on the standard that all cells were spread over the bottoms of culture flasks.
Cells were digested off from the bottoms of culture flasks with trypsin (0.25%). The cell dissociation buffer was transferred into centrifuge tubes, added medium to stop the digestion, and centrifuged for 3 minutes at 1300 rpm. Discarded the supernatant lightly and added fresh culture medium (5 mL). Mixed the cells by pipetting, then added 10 μL of the cell suspension into the cell counting plate, and adjusted the cell concentration to 2×10^4 cells/mL. Added 100 μL of the cell suspension to all wells on the 96 well plates, except A1 well as the blank control. Put the plates into the biochemical incubator for 24 hours and to make sure the cells grew along the walls.
The drugs were dissolved in 80 mmol/L DMSO first, and then diluted the drugs with ethanol to 8 mmol/L. The solution was further diluted with the culture medium to different concentrations as 160 μmol/L, 120 μmol/L, 80 μmol/L, 40 μmol/L, 20 μmol/L and 10 μmol/L. Added 100 μL of the drug solution to each well on the 96 well plates. Therefore, the final concentrations of the drugs that were added to the cells were 80 μmol/L, 40 μmol/L, 20 μmol/L, 10 μmol/L and 5 μmol/L, and each concentration were repeated in three parallel wells. Put the culture plates into the biochemical incubator to culture continuously for 4 days.
Added 50 μL MTT liquids (2 mg/mL) into each well, put the culture plates into the biochemical incubator for 4 h, discarded MTT liquids (TCC), added 200 μL DMSO, then oscillated for 10 minutes on the magnetic oscillator to make sure that the survived cells and the reaction product of MTT were fully dissolved. Detected and recorded the absorbance (OD) values of each well at the wavelength of 570 nm using the microplate reader. The OD values of cells without tested drugs were used as control. The cell growth inhibition rates under each drug concentration were calculated by the following formula. […] Inhibition rate of growth(%)=(1−The absorbance(OD)of cells with tested drugs/The absorbance(OD)of the blank control group)×100%
The absorbance (OD) of cells with tested drugs: OD value is measured with the test drugs.
The absorbance (OD) of the blank control group: OD value is measured without the test drugs. […]

In test [2] the test system is chorioallantoic membrane vessels. The test is described as follows: Activity test by chick chorioallantoic membrane method. The format is in vivo. As to conditions: 5 uL medicine on cellulose membrane, chick embryo, 2 days. On the procedure:
After the shell membrane became wet, tore it open with ophthalmological tweezers so to expose the chorioallantoic membrane. • 6) Added 5 uL of selected medicine to a 0.5×0.5 cm cellulose membrane sterilized by high pressure, then set the membrane on the part of the chorioallantoic membrane with fewer vessels • 7) Closed the window, and put the embryos back into the hatch box to hatch for 2 days. • 8) Opened the transparent tape, and then opened the mixed cellulose membrane lightly with a tweezers. Measured the avascular area and took photographs.

A further test concerns Rat aortic ring. The test can be described thus: Rat Aortic Ring Assay. The class given is cell-based. Particulars: for Rat Aortic Ring Assay (10 ug/ml), result in words: observed on the sixth day; for inhibition at 10 µg/mL: Rattus norvegicus, 10 ug/ml, compared with blank control, sixth day. A digest of the protocol: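 1 mm abdominal aortic rings from 6-week-old SD animals embedded in Matrigel, cultured in DMEM/10% FBS with compound at various concentrations (≥3 wells), medium and compound renewed day 3. Microvessel area imaged on day 6 (×100, 3 random rings); inhibition rate scored: ⋆<30-60%, ⋆⋆60-90%, ⋆⋆⋆>90%.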

The target of the next test is VEGFR-2 (Homo sapiens, UniProt P35968). The test is described as follows: VEGFR-2 inhibition rate test (kinase assay kit, colorimetric ELISA). As to conditions: concentration not given. Background: In an ELISA, binding on a coated surface is turned into a signal by an enzyme label.
Sequence of VEGFR-2 (P35968 20-1356): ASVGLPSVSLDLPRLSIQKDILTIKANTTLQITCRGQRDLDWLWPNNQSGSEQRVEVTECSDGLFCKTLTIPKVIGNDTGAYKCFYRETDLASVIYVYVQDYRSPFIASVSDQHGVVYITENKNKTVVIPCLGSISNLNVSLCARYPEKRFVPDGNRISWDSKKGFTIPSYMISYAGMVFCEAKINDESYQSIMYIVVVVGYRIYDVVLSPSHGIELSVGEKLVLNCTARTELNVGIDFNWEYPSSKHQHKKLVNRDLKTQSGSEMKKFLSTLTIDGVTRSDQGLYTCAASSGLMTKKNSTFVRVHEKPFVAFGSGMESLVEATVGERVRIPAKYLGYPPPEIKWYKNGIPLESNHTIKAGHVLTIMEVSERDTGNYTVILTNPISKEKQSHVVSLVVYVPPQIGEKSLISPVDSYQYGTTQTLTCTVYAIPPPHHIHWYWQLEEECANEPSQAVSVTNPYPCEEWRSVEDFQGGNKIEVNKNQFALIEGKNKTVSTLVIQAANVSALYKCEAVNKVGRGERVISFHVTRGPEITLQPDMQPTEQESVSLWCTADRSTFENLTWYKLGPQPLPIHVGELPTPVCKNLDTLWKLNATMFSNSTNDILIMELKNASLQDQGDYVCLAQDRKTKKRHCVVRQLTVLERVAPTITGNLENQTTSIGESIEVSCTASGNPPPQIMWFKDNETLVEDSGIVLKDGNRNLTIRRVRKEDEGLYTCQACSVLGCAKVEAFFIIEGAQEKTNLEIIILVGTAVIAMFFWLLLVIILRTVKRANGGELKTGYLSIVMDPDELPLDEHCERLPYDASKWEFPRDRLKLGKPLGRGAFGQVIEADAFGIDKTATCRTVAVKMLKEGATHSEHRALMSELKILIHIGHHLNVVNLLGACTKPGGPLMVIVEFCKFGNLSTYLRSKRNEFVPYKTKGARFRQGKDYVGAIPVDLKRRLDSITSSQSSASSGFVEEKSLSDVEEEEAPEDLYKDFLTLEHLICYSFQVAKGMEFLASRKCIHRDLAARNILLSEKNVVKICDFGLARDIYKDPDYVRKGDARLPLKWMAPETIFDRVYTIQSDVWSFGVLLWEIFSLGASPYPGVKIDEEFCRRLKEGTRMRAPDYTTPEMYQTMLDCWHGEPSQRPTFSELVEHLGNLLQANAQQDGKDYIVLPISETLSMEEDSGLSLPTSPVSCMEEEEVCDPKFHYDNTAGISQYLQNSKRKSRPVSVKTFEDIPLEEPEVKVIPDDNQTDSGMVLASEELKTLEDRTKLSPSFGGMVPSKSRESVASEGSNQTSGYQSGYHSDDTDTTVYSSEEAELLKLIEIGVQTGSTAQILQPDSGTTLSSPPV

Consider `CCCCOc1cc2nnnc(Nc3ccc(F)c(Cl)c3)c2cc1OC` [Example 22, 6-methoxy-7-n-butoxy-4-(3-chloro-4-fluoroanilino)-benzo[d][1,2,3]triazine], for which the IC50 in test [1] is 17.4 µM. The “The inhibitory effect on the growth of chorioallantoic membrane vessels” value (from here on “The inhibitory effect on the growth”) in test [2] is on record as “The vessels are fractured at the central part that is covered by paper”. Further, the “Rat Aortic Ring Assay (10 ug/ml), result in words” value (shortened to “Rat Aortic Ring Assay (10 ug/ml)”) in the test with Rat aortic ring was “Cell proliferation and migration were affected. Endothelial cell”. Moreover, the “Kinase inhibition rate (VEGFR-2)” value at VEGFR-2 came out at 0.80.
With `CCCCOc1cc2nnnc(Nc3ccc(F)c(C(F)(F)F)c3)c2cc1OC` [Example 23, 6-methoxy-7-n-butoxy-4-(3-trifluoromethyl-4-fluoroanilino)-benzo[d][1,2,3]triazine], in test [1], the IC50 turned out to be 16.1 µM. Moreover, the “The inhibitory effect on the growth” value in test [2] was “The vessels covered by paper become thinner and fewer”. Moreover, in the test with Rat aortic ring, the “Rat Aortic Ring Assay (10 ug/ml)” value was “Cell morphology was similar to D10, and cells were linear”.
With `CCOc1cc2nnnc(Nc3cccc(OC(F)(F)F)c3)c2cc1OC` [Example 36, 6-methoxy-7-ethoxy-4-(3-trifluoromethoxyanilino)-1,2,3-benzotriazine], in test [1], the IC50 worked out at 23.3 µM. Moreover, in test [2], the “The inhibitory effect on the growth” value is listed as “One sample exhibits no vascular growth at the zone covered by paper”. In addition, the “Rat Aortic Ring Assay (10 ug/ml)” value in the test with Rat aortic ring was “Almost complete inhibition (10 μg/mL)”.
In the case of `CCOc1cc2nnnc(Nc3ccc(F)c(C(F)(F)F)c3)c2cc1OC` [Example 40, 6-methoxy-7-ethoxy-4-(3-trifluoromethyl-4-fluoroanilino)-benzo[d][1,2,3]triazine], the IC50 in test [1] turned out to be 31.7 µM. In test [2], the “The inhibitory effect on the growth” value was “One of the two samples exhibits inhibition”. Also, in the test with Rat aortic ring, the “Rat Aortic Ring Assay (10 ug/ml)” value is recorded as “No significant inhibition”.
On to `CCCCCOc1cc2nnnc(Nc3cc(F)cc(F)c3)c2cc1OC` [Example 47, 6-methoxy-7-pentyloxy-4-(3,5-difluoroanilino)-benzo[d][1,2,3]triazine], for which, in test [1], the IC50 turned out to be 27.9 µM. Moreover, in test [2], the “The inhibitory effect on the growth” value is given as “The vessels in the paper covered zone become fewer,”. In addition, the “Rat Aortic Ring Assay (10 ug/ml)” value in the test on Rat aortic ring is “No significant inhibition”.
As to `CCCCCOc1cc2nnnc(Nc3cccc(OC(F)(F)F)c3)c2cc1OC` [Example 53, 6-methoxy-7-pentyloxy-4-(3-trifluoromethoxyanilino)-benzo[d][1,2,3]triazine], in test [1], the IC50 was 38 µM. Moreover, the “The inhibitory effect on the growth” value in test [2] is “Both of the samples exhibit inhibition ring at the central part of the paper,”. Besides, in the test on Rat aortic ring, the “Rat Aortic Ring Assay (10 ug/ml)” value was “No significant inhibition”. Besides, the “Kinase inhibition rate (VEGFR-2)” value on VEGFR-2 came out at 11.22.
Take `COc1cc2c(Nc3ccccc3)nnnc2cc1OCCCCl` [Example 61, 6-methoxy-7-chloropropoxy-4-anilino-benzo[d][1,2,3]triazine]: in test [2], the “The inhibitory effect on the growth” value is given as “One sample exhibits inhibition ring at the zone covered by paper”. Also, the “Rat Aortic Ring Assay (10 ug/ml)” value in the test on Rat aortic ring was “No significant inhibition”. In addition, the “Kinase inhibition rate (VEGFR-2)” value at VEGFR-2 came to 3.58.
With `COc1cc2c(Nc3ccc(Br)c(F)c3)nnnc2cc1OCCCCl` [Example 62, 6-methoxy-7-chloropropoxy-4-(3-fluoro-4-bromoanilino)-benzo[1,2,3]triazine], the “The inhibitory effect on the growth” value in test [2] was “The embryo is dead”. For the same compound, the “Rat Aortic Ring Assay (10 ug/ml)” value with Rat aortic ring is “No significant inhibition”. The “Kinase inhibition rate (VEGFR-2)” value on VEGFR-2 stood at 18.10.
`COc1cc2c(Nc3cccc(C(F)(F)F)c3)nnnc2cc1OCCCCl` [Example 67, 6-methoxy-7-chloropropoxy-4-(3-trifluoromethylanilino)-benzo[d][1,2,3]triazine]: the IC50 in test [1] is 21.4 µM. For the same compound, the “The inhibitory effect on the growth” value in test [2] is given as “The embryo is dead”. This compound also came in with an inhibition at 10 µg/mL in the test with Rat aortic ring above 50%. Besides, the “Kinase inhibition rate (VEGFR-2)” value on VEGFR-2 turned out to be 0.26.
As to `COc1cc2c(Nc3ccc(C(F)(F)F)cc3)nnnc2cc1OCCCCl` [Example 68, 6-methoxy-7-chloropropoxy-4-(4-trifluoromethylanilino)-benzo[d][1,2,3]triazine], the “The inhibitory effect on the growth” value in test [2] is recorded as “Two samples exhibit inhibition at the zone covered by paper”. Further, the “Rat Aortic Ring Assay (10 ug/ml)” value in the test with Rat aortic ring is recorded as “Vascular growth is significantly inhibited”. Also, on VEGFR-2, the “Kinase inhibition rate (VEGFR-2)” value came to 1.51.
Turning to `COc1cc2c(Nc3ccccc3F)nnnc2cc1OCCCCl` [Example 74, 6-methoxy-7-chloropropoxy-4-(2-fluoroanilino)-benzo[d][1,2,3]triazine], the “The inhibitory effect on the growth” value in test [2] was “The vessels become rare and are fractured at the zone covered by paper”. In the test on Rat aortic ring, the “Rat Aortic Ring Assay (10 ug/ml)” value is “Vessel density was small, cells were elongated and cell”. In addition, the “Kinase inhibition rate (VEGFR-2)” value on VEGFR-2 is on record as 0.26.
As for `COc1cc2c(Nc3cccc(Br)c3)nnnc2cc1OCCCCl` [Example 75, 6-methoxy-7-chloropropoxy-4-(3-bromoanilino)-benzo[d][1,2,3]triazine], in test [2], the “The inhibitory effect on the growth” value is given as “Smaller inhibition ring appears at the zone covered by paper”. Also, in the test with Rat aortic ring, the “Rat Aortic Ring Assay (10 ug/ml)” value was “No significant inhibition”. The “Kinase inhibition rate (VEGFR-2)” value on VEGFR-2 amounted to 0.80.
For the compound `COc1cc2c(Nc3ccc(F)cc3)nnnc2cc1OCCCCl` [Example 76, 6-methoxy-7-chloropropoxy-4-(4-fluoroanilino)-benzo[d][1,2,3]triazine], the IC50 in test [1] was determined as 23.1 µM. The “The inhibitory effect on the growth” value in test [2] is recorded as “The vessels become rare at the zone covered by paper”. For the same compound, the “Rat Aortic Ring Assay (10 ug/ml)” value in the test on Rat aortic ring is recorded as “No significant inhibition”. Also, the “Kinase inhibition rate (VEGFR-2)” value on VEGFR-2 is recorded as 9.35.
Regarding `Fc1ccc(Nc2nnnc3ccc(Cl)nc23)cc1C(F)(F)F` [Example 90, 6-chloro-4-(3-trifluoromethyl-4-fluoroanilino)pyrido[3,2-d][1,2,3]-triazine], the IC50 in test [1] is 10.8 µM. Further, the “The inhibitory effect on the growth” value in test [2] was “One exhibits no inhibition, and embryo of the other sample is dead”.
On to `Clc1ccc2nnnc(Nc3cccc(Br)c3)c2n1` [Example 92, 6-chloro-4-(3-bromoanilino)-pyrido[3,2-d][1,2,3]triazine], for which the IC50 in test [1] was 7.24 µM. In addition, in test [2], the “The inhibitory effect on the growth” value was “One of the two samples exhibits significant vascular inhibition”. Besides, the inhibition at 10 µg/mL in the test with Rat aortic ring is above 50%.
For the compound `Fc1ccc(Nc2nnnc3ccc(Cl)nc23)cc1` [Example 93, 6-chloro-4-(4-fluoroanilino)pyrido[3,2-d][1,2,3]triazine], the IC50 in test [1] is 11.7 µM. The “The inhibitory effect on the growth” value in test [2] is “One of the two samples exhibits death of the embryo, and the other exhibits”. Moreover, the “Kinase inhibition rate (VEGFR-2)” value at VEGFR-2 came out at 5.27.
